Values of other authors, collected in patent US20140356423A1, “FORMULATIONS OF LYCOPENE IN COMBINATION WITH BISPHOSPHONATES BONE RESORPTION INHIBITORS” (priority 2013, published 2014).
Like-named read-outs stand apart in the source and are kept apart here.

Legend:
[1] = tested on: osteoblast-like SaOS-2 cells
[2] = tested on: alkaline phosphatase activity
[3] = taken either concurrently with or 2 hours after breakfast
[4] = tablet not taken with enough water, or patient not upright for approximately one-half hour after taking

Structure (SMILES) | proliferation of osteoblast-like SaOS-2 cells [1] | alkaline phosphatase activity ([2]; more mature cells grown in the presence of dexamethasone (SaOS+Dex cells)) | alkaline phosphatase activity ([2]; younger cells grown in the absence of dexamethasone (SaOS-Dex cells), depending on the time of addition) | impairment of availability [3] | side effects [4]
CC(C)=CCC/C(C)=C/C=C/C(C)=C/C=C/C(C)=C/C=C/C=C(C)/C=C/C=C(C)/C=C/C=C(\C)CCC=C(C)C [lycopene] | stimulated the proliferation | stimulate alkaline phosphatase activity | inhibited or had no effect | – | –
NCCCC(O)(P(=O)(O)O)P(=O)(O)O [alendronate, 4-amino-1-hydroxybutylidene-1,1-biphosphonic acid] | – | – | – | > 85% | esophageal irritation and erosion
